# Experimental data reported in PubChem BioAssay (NCI).
#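 Grown in 96-well plates, cells were treated for 48 hours with each compound at five concentrations. Insufficient inhibition: endpoint recorded as highest concentration tested. At the TGI there is no net growth.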
# Experiments:
# Test in all cases: NCI tumour cell line growth inhibition, 48 h
# 786-0 renal = tested on: 786-0 renal
# A549 NSCLC = tested on: A549 NSCLC
# ACHN renal = tested on: ACHN renal
# BT-549 breast = tested on: BT-549 breast
# CAKI-1 renal = tested on: CAKI-1 renal
# CCRF-CEM leukemia = tested on: CCRF-CEM leukemia
# COLO 205 colon = tested on: COLO 205 colon
# DU-145 prostate = tested on: DU-145 prostate
# HCC-2998 colon = tested on: HCC-2998 colon
# HCT-116 colon = tested on: HCT-116 colon
# HCT-15 colon = tested on: HCT-15 colon
# HL-60(TB) leukemia = tested on: HL-60(TB) leukemia
# HOP-62 NSCLC = tested on: HOP-62 NSCLC
# HOP-92 NSCLC = tested on: HOP-92 NSCLC
# HS 578T breast = tested on: HS 578T breast
# HT29 colon = tested on: HT29 colon
# IGROV1 ovarian = tested on: IGROV1 ovarian
# K-562 leukemia = tested on: K-562 leukemia
# KM12 colon = tested on: KM12 colon
# LOX IMVI melanoma = tested on: LOX IMVI melanoma
# M14 melanoma = tested on: M14 melanoma
# MALME-3M melanoma = tested on: MALME-3M melanoma
# MCF7 breast = tested on: MCF7 breast
# MDA-MB-231 breast = tested on: MDA-MB-231 breast
# MDA-MB-435 = tested on: MDA-MB-435
# MDA-N = tested on: MDA-N
# MOLT-4 leukemia = tested on: MOLT-4 leukemia
# NCI-H23 lung = tested on: NCI-H23 lung
# NCI-H522 lung = tested on: NCI-H522 lung
# NCI/ADR-RES ovarian = tested on: NCI/ADR-RES ovarian
# OVCAR-3 ovarian = tested on: OVCAR-3 ovarian
# OVCAR-4 ovarian = tested on: OVCAR-4 ovarian
# OVCAR-5 ovarian = tested on: OVCAR-5 ovarian
# OVCAR-8 ovarian = tested on: OVCAR-8 ovarian
# PC-3 prostate = tested on: PC-3 prostate
# RPMI-8226 leukemia = tested on: RPMI-8226 leukemia
# SF-268 CNS = tested on: SF-268 CNS
# SF-295 CNS = tested on: SF-295 CNS
# SF-539 CNS = tested on: SF-539 CNS
# SK-MEL-28 melanoma = tested on: SK-MEL-28 melanoma
# SK-MEL-5 melanoma = tested on: SK-MEL-5 melanoma
# SK-OV-3 ovarian = tested on: SK-OV-3 ovarian
# SN12C renal = tested on: SN12C renal
# SNB-19 CNS = tested on: SNB-19 CNS
# SNB-75 CNS = tested on: SNB-75 CNS
# SR leukemia = tested on: SR leukemia
# SW-620 colon = tested on: SW-620 colon
# T-47D breast = tested on: T-47D breast
# TK-10 renal = tested on: TK-10 renal
# U251 CNS = tested on: U251 CNS
# UACC-257 melanoma = tested on: UACC-257 melanoma
# UACC-62 melanoma = tested on: UACC-62 melanoma
# A498 renal = tested on: A498 renal
# EKVX NSCLC = tested on: EKVX NSCLC
# NCI-H226 lung = tested on: NCI-H226 lung
# NCI-H460 lung = tested on: NCI-H460 lung
# RXF 393 renal = tested on: RXF 393 renal
# SK-MEL-2 melanoma = tested on: SK-MEL-2 melanoma
# UO-31 renal = tested on: UO-31 renal
compound,measurement,setting,value
COc1ccc2c(c1)CCc1[nH]c3ccccc3c1CCCC2,TGI,786-0 renal,> 10 µM
same,TGI,A549 NSCLC,> 10 µM
same,TGI,ACHN renal,> 10 µM
same,TGI,BT-549 breast,> 10 µM
same,TGI,CAKI-1 renal,> 10 µM
same,TGI,CCRF-CEM leukemia,> 10 µM
same,TGI,COLO 205 colon,> 10 µM
same,TGI,DU-145 prostate,> 10 µM
same,TGI,HCC-2998 colon,> 10 µM
same,TGI,HCT-116 colon,> 10 µM
same,TGI,HCT-15 colon,> 10 µM
same,TGI,HL-60(TB) leukemia,> 10 µM
same,TGI,HOP-62 NSCLC,> 10 µM
same,TGI,HOP-92 NSCLC,> 10 µM
same,TGI,HS 578T breast,> 10 µM
same,TGI,HT29 colon,> 10 µM
same,TGI,IGROV1 ovarian,> 10 µM
same,TGI,K-562 leukemia,> 10 µM
same,TGI,KM12 colon,> 10 µM
same,TGI,LOX IMVI melanoma,> 10 µM
same,TGI,M14 melanoma,> 10 µM
same,TGI,MALME-3M melanoma,> 10 µM
same,TGI,MCF7 breast,> 10 µM
same,TGI,MDA-MB-231 breast,> 10 µM
same,TGI,MDA-MB-435,> 10 µM
same,TGI,MDA-N,> 10 µM
same,TGI,MOLT-4 leukemia,> 10 µM
same,TGI,NCI-H23 lung,> 10 µM
same,TGI,NCI-H522 lung,> 10 µM
same,TGI,NCI/ADR-RES ovarian,> 10 µM
same,TGI,OVCAR-3 ovarian,> 10 µM
same,TGI,OVCAR-4 ovarian,> 10 µM
same,TGI,OVCAR-5 ovarian,> 10 µM
same,TGI,OVCAR-8 ovarian,> 10 µM
same,TGI,PC-3 prostate,> 10 µM
same,TGI,RPMI-8226 leukemia,> 10 µM
same,TGI,SF-268 CNS,> 10 µM
same,TGI,SF-295 CNS,> 10 µM
same,TGI,SF-539 CNS,> 10 µM
same,TGI,SK-MEL-28 melanoma,> 10 µM
same,TGI,SK-MEL-5 melanoma,> 10 µM
same,TGI,SK-OV-3 ovarian,> 10 µM
same,TGI,SN12C renal,> 10 µM
same,TGI,SNB-19 CNS,> 10 µM
same,TGI,SNB-75 CNS,> 10 µM
same,TGI,SR leukemia,> 10 µM
same,TGI,SW-620 colon,> 10 µM
same,TGI,T-47D breast,> 10 µM
same,TGI,TK-10 renal,> 10 µM
same,TGI,U251 CNS,> 10 µM
same,TGI,UACC-257 melanoma,> 10 µM
same,TGI,UACC-62 melanoma,> 10 µM
O=c1c2cccnc2cc(-c2ccccc2)n1CCO,TGI,786-0 renal,> 100 µM
same,TGI,A498 renal,> 100 µM
same,TGI,A549 NSCLC,> 100 µM
same,TGI,ACHN renal,> 100 µM
same,TGI,BT-549 breast,> 100 µM
same,TGI,CCRF-CEM leukemia,> 100 µM
same,TGI,COLO 205 colon,> 100 µM
same,TGI,DU-145 prostate,> 100 µM
same,TGI,EKVX NSCLC,> 100 µM
same,TGI,HCC-2998 colon,> 100 µM
same,TGI,HCT-116 colon,> 100 µM
same,TGI,HCT-15 colon,> 100 µM
same,TGI,HL-60(TB) leukemia,> 100 µM
same,TGI,HOP-62 NSCLC,> 100 µM
same,TGI,HS 578T breast,> 100 µM
same,TGI,HT29 colon,> 100 µM
same,TGI,IGROV1 ovarian,> 100 µM
same,TGI,K-562 leukemia,> 100 µM
same,TGI,KM12 colon,> 100 µM
same,TGI,LOX IMVI melanoma,> 100 µM
same,TGI,M14 melanoma,> 100 µM
same,TGI,MALME-3M melanoma,> 100 µM
same,TGI,MCF7 breast,> 100 µM
same,TGI,MDA-MB-231 breast,> 100 µM
same,TGI,MDA-MB-435,> 100 µM
same,TGI,MDA-N,> 100 µM
same,TGI,MOLT-4 leukemia,> 100 µM
same,TGI,NCI-H226 lung,> 100 µM
same,TGI,NCI-H23 lung,> 100 µM
same,TGI,NCI-H460 lung,> 100 µM
same,TGI,NCI-H522 lung,> 100 µM
same,TGI,NCI/ADR-RES ovarian,> 100 µM
same,TGI,OVCAR-3 ovarian,> 100 µM
same,TGI,OVCAR-4 ovarian,> 100 µM
same,TGI,OVCAR-5 ovarian,> 100 µM
same,TGI,OVCAR-8 ovarian,> 100 µM
same,TGI,PC-3 prostate,> 100 µM
same,TGI,RPMI-8226 leukemia,> 100 µM
same,TGI,RXF 393 renal,> 100 µM
same,TGI,SF-268 CNS,> 100 µM
same,TGI,SF-295 CNS,> 100 µM
same,TGI,SK-MEL-2 melanoma,> 100 µM
same,TGI,SK-MEL-28 melanoma,> 100 µM
same,TGI,SK-MEL-5 melanoma,> 100 µM
same,TGI,SK-OV-3 ovarian,> 100 µM
same,TGI,SN12C renal,> 100 µM
same,TGI,SNB-19 CNS,> 100 µM
same,TGI,SNB-75 CNS,> 100 µM
same,TGI,SR leukemia,> 100 µM
same,TGI,SW-620 colon,> 100 µM
same,TGI,T-47D breast,> 100 µM
same,TGI,TK-10 renal,> 100 µM
same,TGI,U251 CNS,> 100 µM
same,TGI,UACC-257 melanoma,> 100 µM
same,TGI,UACC-62 melanoma,> 100 µM
same,TGI,UO-31 renal,> 100 µM
